The test system of the experiment is Schaffer collateral (SC)-CA1 synapses. In words: Ex vivo electrophysiology in hippocampal slices of aged rats. More on the design: species or system Sprague–Dawley rats. How it is done: Animals. Male Sprague–Dawley rats (22–23 months old) were bred and kept in the Core Unit of Biomedical Research, Division of Laboratory Animal Science and Genetics, Medical University of Vienna. Rats were housed in groups of two in standard Makrolon cages filled with autoclaved woodchips (temperature: 22 ± 2 °C; humidity: 55 ± 5%; 12 h artificial light/12 h dark cycle: light on at 7:00 am). Tap water and food were provided ad libitum. The study was carried out according to the guidelines of the ethics committee at the Medical University of Vienna and was approved by the Federal Ministry of Education, Science, and Culture, Austria (BMBWF-66.009/235/V/3b/2018).
Hippocampal Slices Preparation. Acutely dissected hippocampal slices obtained from rat singles administered with vehicle or 10 mg/kg for 7h (1 h prior to brain extraction) were prepared as previously described, with slight modifications. Briefly, rats were anesthetized by 50 s isoflurane inhalation exposure, and (upon the absence of corneal reflexes), animals were decapitated using a high-precision, hardened, sharp-blade rodent guillotine (DCAP-M, World Precision Instruments, Inc., Sarasota, FL, USA). […]
Extracellular recording. […] An AxoClamp-2B amplifier, Digidata-1440 interface (Axon Instruments, Molecular Devices, Berkshire, UK), and pClamp-11 software (Molecular Devices, Berkshire, UK) were used for data acquisition and analysis. fEPSPs were recorded at 0.033 Hz. […]
Hippocampal synaptic potentiation was induced by delivering 4 trains of 20 pulses at 100 Hz (200 μs/pulse) with a 500 ms inter-train interval, a variant of the different forms of HFS protocol known to induce both post-tetanic potentiation (PTP) and long-term potentiation (LTP) in hippocampal CA3-CA1 hippocampal synapses in young rodents. Synaptic plasticity was assessed by quantifying the time course of changes in fEPSP slope (decaying phase) after applying the plasticity-inducing protocol, normalized to the average of all fEPSP slopes recorded during the preceding baseline recording period. […]

Molecules are shown by their SMILES.

The text below walks through data of PMC10527105, “Chirality Matters: Fine-Tuning of Novel Monoamine Reuptake Inhibitors Selectivity through Manipulation of Stereochemistry” (Biomolecules, 2023).

`[O-][S@+](Cc1cccs1)[C@H](c1ccccc1)c1cccc(Br)c1` [Compound 8h, (R,R)-2-((((3-bromophenyl)(phenyl)methyl)sulfinyl)methyl)thiophene]: where the note is “acute 10 mg/kg, aged rats (22–23 months), hippocampal slices”, the “basal synaptic transmission: fEPSP slopes (I/O curves) vs vehicle” value is “significantly enhanced”. Moreover, the “long-term potentiation (LTP) after HFS vs vehicle” value (acute treatment, aged rats, for at least 40 min after HFS) was “significantly increased and maintained LTP”. For the setting “acute treatment, aged rats, right after HFS, Sidak post hoc p < 0.0001”, the “early post-tetanic potentiation (PTP) responses vs vehicle” value was “statistically significant (p < 0.0001) enhancement”.
